Test results from patent US4968539A, “Liquid crystal membrane” (Lion Corporation, priority 1987, dated 1990).
Like-named read-outs stand apart in the source and are kept apart here. Each block holds one compound with its values, some of them ahead of it.

How the values were obtained:
[1] = Amount of acetaminophen permeated through hairless rat skin with membrane, two-chamber diffusion cell; type: in vitro ADME, WBN/Kob hairless rats
Description: The skin of the abdomen of WBN/Kob hairless rats ("Saitama" experimental animal) was taken under anesthesia (60 mg/kg pentobarbital, I.P.). A membrane sample prepared in the same manner as that of Example 3 was applied to the corneous layer-side of the skin specimens and they were placed in a glass two-chamber diffusion cell. 10% aqueous ethanol solution containing 2.4% of acetaminophen dissolved therein was placed in a donor-side chamber thereof and a phosphate buffer solution (pH 7.4) was placed in a receiver-side chamber. Increase in acetaminophen concentration in the receiver-side chamber with time was determined by HPLC.

[2] = plaster of clonidine; American Heart Journal, 217-222, July (1984); cited from earlier work
in vivo = test: in vivo; design: species or system white rabbits; conditions: rabbit
Description: (§1) Hair was removed from the abdomen of a white rabbits weighing 2.0 to 2.5 kg with an electric clipper and the abdomen was then shaved with an electric razor carefully so as not to hurt the skin. A glass cell kept at a constant temperature by circulation of warm water was fixed thereon with a quick adhesive (Alon Alpha® of Toa Gosei Co.) through a membrane sample.
(§2) A drug solution was placed in the glass cell and the concentration of the drug in the blood was determined at time intervals over 48 h. In this experiment, the blood sample was taken from the ear vein of the rabbit at given time intervals and the drug concentration was analyzed according to liquid chromatography.
(§3) The polymer membrane and the drug solution used in this experiment were prepared as follows: in the example of the present invention, a polypropylene membrane (Celgard® 2402 having a port diameter of 0.02 μm and porosity of 38%) was immersed in 15% or 20% solution of polyoxyethylene(3 mol) trimethylolpropane tristearate (TPS-303® of Nippon Emulsion Co.) in chloroform for one hour and then air-dried to obtain the membrane. The drug solution used in this example was 50% aqueous N-methyl-2-pyrrolidone solution further containing 0.01 g/ml of indomethacin.
In a comparative example, about 1 wt.% of indomethacin was mixed in 100 parts by weight of an ointment base comprising 40% of ethyl alcohol, 58.4% of water, 1.5% of a polycarboxylic acid (Carbopol 940® of Goodrich Chemical Co.) and 0.1% of triethanolamine to prepare an ointment. 3 g of the ointment was placed in the constant temperature glass cell. No polymer membrane was used.

[3] = Ketoprofen concentration in the blood after application to rabbit abdomen; type: in vivo, white rabbits
Description: as §1, §2, §3
A change of the concentration of ketoprofen in the blood was investigated with the same polymer membrane in the same manner as those of Example 6 except that 3 ml of 30% aqueous ethanol solution in which 0.01 g/ml of ketoprofen had been suspended was used.

[4] = Cumulative amount of nitroglycerin permeated through hairless rat skin, two-chamber diffusion cell; type: in vitro ADME; conditions: 38° C.
Description: The same membrane sample as that of Example 2 and the same skin of hairless rat as that of Example 3 were mounted in the glass 2-chamber diffusion cell in the same manner as described above. 0.1% aqueous nitroglycerin solution was placed in the donor-side chamber and a phosphate buffer solution (pH 7.4) was placed in the receiver chamber. An increase of the concentration of nitroglycerin in the receiver chamber with time was determined by HPLC. As a control, only the skin free from the sample membrane was used in the experiment of the permeation of nitroglycerin through the skin. The experiment was conducted at 38° C.

[5] = rabbit, blood, topical or ocular, 32° C., read-out: Concentration of drug in blood
[6] = rabbit, blood, topical or ocular, 38° C., read-out: Concentration of drug in blood

Amount of drug permeated through the skin ([1]; 32° C., 2 hr): 0 μg/cm^2 | Amount of drug permeated through the skin ([1]; 32° C., 4 hr): 0 μg/cm^2 | Amount of drug permeated through the skin ([1]; 32° C., 12 hr): 0 μg/cm^2 | Amount of drug permeated through the skin ([1]; 32° C., 24 hr): 2 μg/cm^2 | Amount of drug permeated through the skin ([1]; 32° C., 36 hr): 5 μg/cm^2 | Amount of drug permeated through the skin ([1]; 38° C., 2 hr): 1 μg/cm^2 | Amount of drug permeated through the skin ([1]; 38° C., 4 hr): 3 μg/cm^2 | Amount of drug permeated through the skin ([1]; 38° C., 12 hr): 60 μg/cm^2 | Amount of drug permeated through the skin ([1]; 38° C., 24 hr): 170 μg/cm^2 | Amount of drug permeated through the skin ([1]; 38° C., 36 hr): 330 μg/cm^2
SMILES: CC(=O)Nc1ccc(O)cc1 [acetaminophen]

SMILES: Clc1cccc(Cl)c1N=C1NCCN1 [clonidine]
Time to attain an effective concentration in the blood [2]: three

Concentration of drug in blood (in vivo; 360 min): 0 ng/mL | Concentration of drug in blood (in vivo; 2880 min): 0 ng/mL | Concentration of drug in blood (in vivo; topical or ocular, 6 h): 22 ng/mL | concentration at 6 h (in vivo; topical or ocular, Concentration of drug in blood): 20 ng/mL
SMILES: COc1ccc2c(c1)c(CC(=O)O)c(C)n2C(=O)c1ccc(Cl)cc1 [indomethacin]

SMILES: CC(C(=O)O)c1cccc(C(=O)c2ccccc2)c1 (stereo not shown) [ketoprofen]
Concentration of drug in blood ([3]; 32° C., 6 hr): 0 ng/mL | concentration at 24 h [3, 5]: 18 ng/mL | concentration at 48 h [3, 5]: 17 ng/mL | concentration at 6 h ([3]; rabbit, blood, topical or ocular, 38° C., 6 hr, read-out: Concentration of drug in blood): 740 ng/mL | concentration at 24 h [3, 6]: 410 ng/mL | concentration at 48 h [3, 6]: 300 ng/mL

SMILES: O=[N+]([O-])OCC(CO[N+](=O)[O-])O[N+](=O)[O-] [nitroglycerin]
Cumulative amount of permeated nitroglycerin ([4]; With polymer membrane of the present invention, 2 h): 26 μg/cm^2 | Cumulative amount of permeated nitroglycerin ([4]; With polymer membrane of the present invention, 4 hr): 92 μg/cm^2 | Cumulative amount of permeated nitroglycerin ([4]; With polymer membrane of the present invention, 6 hr): 185 μg/cm^2 | Cumulative amount of permeated nitroglycerin ([4]; With polymer membrane of the present invention, 8 hr): 274 μg/cm^2 | Cumulative amount of permeated nitroglycerin ([4]; With polymer membrane of the present invention, 10 hr): 365 μg/cm^2 | Cumulative amount of permeated nitroglycerin ([4]; Without polymer membrane (skin only), 2 h): 8 μg/cm^2 | Cumulative amount of permeated nitroglycerin ([4]; Without polymer membrane (skin only), 4 hr): 44 μg/cm^2 | Cumulative amount of permeated nitroglycerin ([4]; Without polymer membrane (skin only), 6 hr): 101 μg/cm^2 | Cumulative amount of permeated nitroglycerin ([4]; Without polymer membrane (skin only), 8 hr): 154 μg/cm^2 | Cumulative amount of permeated nitroglycerin ([4]; Without polymer membrane (skin only), 10 hr): 218 μg/cm^2
